Here are results for 6 molecules from ChEMBL document CHEMBL6182925 (J Med Chem, 2025).

Data set [1] can be described thus: Kinetic solubility of compound at pH 2. Format: physicochemical. The conditions noted are these: buffer, read-out: Kinetic_solubility.
The nature of data set [2]: Kinetic solubility of compound at pH 4.5. Format: physicochemical. The settings on record: buffer, read-out: Kinetic_solubility.
Data set [3] addresses T1, Alpha-2A adrenergic receptor (Homo sapiens) (UniProt P08913).
T1 sequence (whole entry): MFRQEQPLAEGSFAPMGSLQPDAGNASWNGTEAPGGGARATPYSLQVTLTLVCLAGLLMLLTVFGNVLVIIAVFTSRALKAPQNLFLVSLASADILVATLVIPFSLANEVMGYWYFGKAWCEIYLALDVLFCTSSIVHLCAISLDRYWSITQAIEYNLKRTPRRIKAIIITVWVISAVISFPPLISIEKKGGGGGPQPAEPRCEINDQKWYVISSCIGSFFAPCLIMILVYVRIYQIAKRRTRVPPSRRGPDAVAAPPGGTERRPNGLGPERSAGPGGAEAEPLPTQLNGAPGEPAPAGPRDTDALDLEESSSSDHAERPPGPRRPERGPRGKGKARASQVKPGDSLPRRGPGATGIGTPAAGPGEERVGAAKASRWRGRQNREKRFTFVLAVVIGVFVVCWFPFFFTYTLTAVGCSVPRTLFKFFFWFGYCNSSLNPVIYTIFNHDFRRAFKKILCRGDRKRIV
Description: Inhibition of alpha 2A adrenergic receptor (unknown origin) at 10 uM by CEREP analysis relative to control.

The target of data set [4] is hERG (Homo sapiens, UniProt Q12809). Description: Inhibition of hERG at 10 uM by CEREP analysis relative to control. The class given is toxicity. Background: hERG is a cardiac potassium channel; its block is linked to QT prolongation.
Sequence of hERG (Q12809 whole entry): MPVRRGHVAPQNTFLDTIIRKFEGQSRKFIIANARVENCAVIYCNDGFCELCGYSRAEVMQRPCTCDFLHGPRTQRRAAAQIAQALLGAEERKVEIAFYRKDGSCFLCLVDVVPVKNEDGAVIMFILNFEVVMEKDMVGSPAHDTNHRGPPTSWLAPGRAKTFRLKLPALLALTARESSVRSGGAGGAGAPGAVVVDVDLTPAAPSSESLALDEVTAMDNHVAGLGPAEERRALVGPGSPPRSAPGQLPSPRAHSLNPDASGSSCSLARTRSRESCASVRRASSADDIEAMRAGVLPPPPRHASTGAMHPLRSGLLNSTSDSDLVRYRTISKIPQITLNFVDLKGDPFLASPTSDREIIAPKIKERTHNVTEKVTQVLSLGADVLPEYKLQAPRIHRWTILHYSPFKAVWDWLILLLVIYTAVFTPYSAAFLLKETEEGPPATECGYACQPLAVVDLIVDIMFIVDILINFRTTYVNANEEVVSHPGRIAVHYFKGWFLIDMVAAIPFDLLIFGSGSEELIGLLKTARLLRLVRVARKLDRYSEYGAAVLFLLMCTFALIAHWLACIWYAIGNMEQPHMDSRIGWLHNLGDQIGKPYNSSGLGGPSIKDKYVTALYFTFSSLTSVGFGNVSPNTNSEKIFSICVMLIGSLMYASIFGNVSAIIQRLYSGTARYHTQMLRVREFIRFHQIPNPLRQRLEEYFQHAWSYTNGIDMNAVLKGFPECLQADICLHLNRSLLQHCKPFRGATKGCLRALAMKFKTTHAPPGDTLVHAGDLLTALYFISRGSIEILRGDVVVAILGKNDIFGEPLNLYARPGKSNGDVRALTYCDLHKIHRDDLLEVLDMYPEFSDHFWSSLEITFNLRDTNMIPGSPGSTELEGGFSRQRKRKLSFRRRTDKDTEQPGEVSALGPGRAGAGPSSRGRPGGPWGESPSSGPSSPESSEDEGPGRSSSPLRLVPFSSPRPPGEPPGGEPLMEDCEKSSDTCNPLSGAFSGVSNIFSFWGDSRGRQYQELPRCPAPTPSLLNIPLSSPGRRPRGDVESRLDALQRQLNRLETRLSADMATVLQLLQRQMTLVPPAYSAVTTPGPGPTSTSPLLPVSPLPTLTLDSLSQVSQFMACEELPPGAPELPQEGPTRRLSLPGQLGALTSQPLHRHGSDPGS
The target of data set [5] is 5-hydroxytryptamine receptor 1B (Homo sapiens) (UniProt P28222). Description: Inhibition of 5-HT1B receptor (unknown origin) at 10 uM by CEREP analysis relative to control.
Sequence of 5-hydroxytryptamine receptor 1B (Homo sapiens) (P28222 whole entry): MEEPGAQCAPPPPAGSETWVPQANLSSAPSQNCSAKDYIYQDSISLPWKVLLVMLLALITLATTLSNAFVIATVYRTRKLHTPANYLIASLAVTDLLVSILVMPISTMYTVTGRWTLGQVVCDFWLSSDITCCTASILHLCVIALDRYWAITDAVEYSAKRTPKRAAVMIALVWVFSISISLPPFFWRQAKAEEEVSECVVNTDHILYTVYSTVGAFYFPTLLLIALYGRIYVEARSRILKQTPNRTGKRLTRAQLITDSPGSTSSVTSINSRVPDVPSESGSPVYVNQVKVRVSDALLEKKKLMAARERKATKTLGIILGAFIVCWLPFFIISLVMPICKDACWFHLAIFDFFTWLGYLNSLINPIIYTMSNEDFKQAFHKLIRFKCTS
The target of data set [6] is 5-hydroxytryptamine receptor 2B (Homo sapiens) (UniProt P41595). The data set can be described thus: Inhibition of 5-HT2B receptor (unknown origin) at 10 uM by CEREP analysis relative to control.
The species entered for data set [7] is Homo sapiens. Description: Inhibition of sodium channel site 2 (unknown origin) at 10 uM by CEREP analysis relative to control.
Data set [8] addresses L-type calcium channel (Homo sapiens, UniProt O60840+Q01668+Q13698+Q13936). The data set can be described thus: Inhibition of Calcium channel L-type (unknown origin) at 10 uM by CEREP analysis relative to control. The class given is protein assay.
The target in data set [9] is Sodium-dependent serotonin transporter (Homo sapiens) (UniProt P31645). Description: Inhibition of SERT (unknown origin) at 10 uM by CEREP analysis relative to control.
Sequence of Sodium-dependent serotonin transporter (Homo sapiens) (P31645 whole entry, looked up): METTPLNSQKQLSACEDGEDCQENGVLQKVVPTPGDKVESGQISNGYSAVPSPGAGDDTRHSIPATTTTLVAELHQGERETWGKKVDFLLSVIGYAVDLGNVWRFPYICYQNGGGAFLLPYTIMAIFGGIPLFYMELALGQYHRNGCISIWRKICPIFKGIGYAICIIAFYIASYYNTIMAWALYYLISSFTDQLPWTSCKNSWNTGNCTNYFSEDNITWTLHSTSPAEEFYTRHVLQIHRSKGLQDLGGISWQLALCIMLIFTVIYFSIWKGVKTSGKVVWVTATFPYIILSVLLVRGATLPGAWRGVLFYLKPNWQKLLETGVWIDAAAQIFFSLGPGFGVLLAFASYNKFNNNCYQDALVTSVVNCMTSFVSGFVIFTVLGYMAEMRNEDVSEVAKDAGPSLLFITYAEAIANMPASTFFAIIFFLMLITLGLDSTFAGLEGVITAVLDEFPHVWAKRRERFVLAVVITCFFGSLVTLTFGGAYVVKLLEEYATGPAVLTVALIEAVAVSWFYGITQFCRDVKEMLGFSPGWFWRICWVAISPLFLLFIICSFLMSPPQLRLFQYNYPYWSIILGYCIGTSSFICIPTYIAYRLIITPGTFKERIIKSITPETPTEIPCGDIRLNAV
For data set [10], the target named is cGMP-inhibited 3',5'-cyclic phosphodiesterase 3A (Homo sapiens) (UniProt Q14432). The data set can be described thus: Inhibition of PDE3A (unknown origin) at 10 uM by CEREP analysis relative to control.
Sequence of cGMP-inhibited 3',5'-cyclic phosphodiesterase 3A (Homo sapiens) (Q14432 whole entry): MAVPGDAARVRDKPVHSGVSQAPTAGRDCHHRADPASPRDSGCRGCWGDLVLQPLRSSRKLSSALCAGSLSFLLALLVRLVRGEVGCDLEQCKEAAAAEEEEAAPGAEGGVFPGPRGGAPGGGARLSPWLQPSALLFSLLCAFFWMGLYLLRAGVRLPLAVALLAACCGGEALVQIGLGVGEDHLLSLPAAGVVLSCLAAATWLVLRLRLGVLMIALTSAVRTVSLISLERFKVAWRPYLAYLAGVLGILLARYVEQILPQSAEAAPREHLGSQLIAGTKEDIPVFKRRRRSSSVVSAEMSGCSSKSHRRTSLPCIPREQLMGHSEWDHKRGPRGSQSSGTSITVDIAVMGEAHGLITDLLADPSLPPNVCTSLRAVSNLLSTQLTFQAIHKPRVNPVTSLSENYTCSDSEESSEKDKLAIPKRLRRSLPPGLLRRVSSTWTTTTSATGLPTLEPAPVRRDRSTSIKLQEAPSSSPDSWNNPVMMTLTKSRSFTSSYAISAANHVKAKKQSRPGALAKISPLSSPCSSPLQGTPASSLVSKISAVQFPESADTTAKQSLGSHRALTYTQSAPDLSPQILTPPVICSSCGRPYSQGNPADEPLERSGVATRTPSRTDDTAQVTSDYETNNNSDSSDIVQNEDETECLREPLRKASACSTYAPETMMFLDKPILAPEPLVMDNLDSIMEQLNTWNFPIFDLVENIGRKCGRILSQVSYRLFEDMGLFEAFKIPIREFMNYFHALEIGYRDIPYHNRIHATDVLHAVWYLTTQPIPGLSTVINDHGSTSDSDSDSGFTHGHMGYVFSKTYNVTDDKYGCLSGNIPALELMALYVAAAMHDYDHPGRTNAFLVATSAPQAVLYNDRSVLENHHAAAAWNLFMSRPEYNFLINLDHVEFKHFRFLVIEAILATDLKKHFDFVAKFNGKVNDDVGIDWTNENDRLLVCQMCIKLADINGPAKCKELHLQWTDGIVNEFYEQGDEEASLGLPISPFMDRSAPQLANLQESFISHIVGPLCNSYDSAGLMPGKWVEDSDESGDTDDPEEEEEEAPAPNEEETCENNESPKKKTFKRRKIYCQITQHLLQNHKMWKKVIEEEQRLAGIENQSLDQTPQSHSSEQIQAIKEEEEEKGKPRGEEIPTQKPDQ
Data set [11] deals with 3',5'-cyclic-AMP phosphodiesterase 4D (Homo sapiens) (UniProt Q08499). The data set can be described thus: Inhibition of PDE4D2 (unknown origin) at 10 uM by CEREP analysis relative to control.
The target of data set [12] is T2, Muscarinic acetylcholine receptor M2 (Homo sapiens) (UniProt P08172).
T2 sequence (whole entry): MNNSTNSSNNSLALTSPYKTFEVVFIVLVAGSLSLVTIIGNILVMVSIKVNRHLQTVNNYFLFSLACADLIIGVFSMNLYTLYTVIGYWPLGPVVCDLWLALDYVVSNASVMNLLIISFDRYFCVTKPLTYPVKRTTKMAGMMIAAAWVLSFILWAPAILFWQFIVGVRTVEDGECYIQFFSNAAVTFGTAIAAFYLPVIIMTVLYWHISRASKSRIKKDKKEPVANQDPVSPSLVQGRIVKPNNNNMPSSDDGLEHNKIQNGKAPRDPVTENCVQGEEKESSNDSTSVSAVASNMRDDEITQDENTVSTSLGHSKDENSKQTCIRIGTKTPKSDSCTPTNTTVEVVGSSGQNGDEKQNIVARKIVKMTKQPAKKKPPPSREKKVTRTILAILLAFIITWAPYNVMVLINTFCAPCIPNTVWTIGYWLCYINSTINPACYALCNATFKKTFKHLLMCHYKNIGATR
Description: Inhibition of muscarinic M2 receptor (unknown origin) at 10 uM by CEREP analysis relative to control.

A short description of data set [13]: Oral bioavailability in mouse. The class given is ADME, organism-based. The settings on record: in vivo.
The nature of data set [14]: Oral bioavailability in rat. The settings on record: in vivo. The class given is ADME, organism-based.
The nature of data set [15]: cells. The conditions noted are these: Mus musculus, BaF3/TRP-Met, 72 h.
In data set [16] the test system is BaF3. The data set can be described thus: cells. The settings on record: Mus musculus, BaF3, 72 h.
In data set [17] the test system is BaF3. Description: cells. The conditions noted are these: Mus musculus, BaF3, 72 h. This is another data set of the same source.
For data set [18], the system named is BaF3. Description: cells. The settings on record: Mus musculus, BaF3, 72 h. The source holds these as a separate data set.
Data set [19] has as its system BaF3. The data set can be described thus: cells. The conditions noted are these: Mus musculus, BaF3, 72 h. The source holds these as a separate data set.
Data set [20] relates to BaF3. The data set can be described thus: cells. The settings on record: Mus musculus, BaF3, 72 h. This is another data set of the same source.
Data set [21] deals with BaF3. The data set can be described thus: cells. The conditions noted are these: Mus musculus, BaF3, 72 h. This is another data set of the same source.
Data set [22] relates to BaF3. Description: cells. The settings on record: Mus musculus, BaF3, 72 h. The source holds these as a separate data set.
For data set [23], the system named is BaF3. Description: cells. The settings on record: Mus musculus, BaF3, 72 h. The source holds these as a separate data set.
In data set [24] the test system is BaF3. Description: cells. The conditions noted are these: Mus musculus, BaF3, 72 h. This is another data set of the same source.
Data set [25] deals with BaF3. Description: cells. The conditions noted are these: Mus musculus, BaF3, 72 h. This is another data set of the same source.
Data set [26] deals with BaF3. The data set can be described thus: cells. The settings on record: Mus musculus, BaF3, 72 h. This is another data set of the same source.
For data set [27], the system named is BaF3. Description: cells. The settings on record: Mus musculus, BaF3, 72 h. This is another data set of the same source.
The test system of data set [28] is BaF3. The data set can be described thus: cells. The conditions noted are these: Mus musculus, BaF3, 72 h. This is another data set of the same source.
Data set [29] relates to BaF3. Description: cells. The settings on record: Mus musculus, BaF3, 72 h. The source holds these as a separate data set.
Data set [30] concerns the target Vascular endothelial growth factor receptor 2 (Homo sapiens, UniProt P35968). Description: Inhibition of KDR (unknown origin) by fluorescence-based microfluidic mobility shift assay.
In data set [31] the target is Tyrosine-protein kinase receptor UFO (Homo sapiens, UniProt P30530). Description: Inhibition of AXL (unknown origin) by fluorescence-based microfluidic mobility shift assay.
In data set [32] the target is Tyrosine-protein kinase Mer (Homo sapiens, UniProt Q12866). The data set can be described thus: Inhibition of MERTK (unknown origin) by fluorescence-based microfluidic mobility shift assay.
Data set [33] can be described thus: Clearance in mouse. Format: ADME, organism-based. The settings on record: in vivo.

In brackets after ≈: the same amount, converted by molar mass.

Sequence of Vascular endothelial growth factor receptor 2 (P35968 whole entry): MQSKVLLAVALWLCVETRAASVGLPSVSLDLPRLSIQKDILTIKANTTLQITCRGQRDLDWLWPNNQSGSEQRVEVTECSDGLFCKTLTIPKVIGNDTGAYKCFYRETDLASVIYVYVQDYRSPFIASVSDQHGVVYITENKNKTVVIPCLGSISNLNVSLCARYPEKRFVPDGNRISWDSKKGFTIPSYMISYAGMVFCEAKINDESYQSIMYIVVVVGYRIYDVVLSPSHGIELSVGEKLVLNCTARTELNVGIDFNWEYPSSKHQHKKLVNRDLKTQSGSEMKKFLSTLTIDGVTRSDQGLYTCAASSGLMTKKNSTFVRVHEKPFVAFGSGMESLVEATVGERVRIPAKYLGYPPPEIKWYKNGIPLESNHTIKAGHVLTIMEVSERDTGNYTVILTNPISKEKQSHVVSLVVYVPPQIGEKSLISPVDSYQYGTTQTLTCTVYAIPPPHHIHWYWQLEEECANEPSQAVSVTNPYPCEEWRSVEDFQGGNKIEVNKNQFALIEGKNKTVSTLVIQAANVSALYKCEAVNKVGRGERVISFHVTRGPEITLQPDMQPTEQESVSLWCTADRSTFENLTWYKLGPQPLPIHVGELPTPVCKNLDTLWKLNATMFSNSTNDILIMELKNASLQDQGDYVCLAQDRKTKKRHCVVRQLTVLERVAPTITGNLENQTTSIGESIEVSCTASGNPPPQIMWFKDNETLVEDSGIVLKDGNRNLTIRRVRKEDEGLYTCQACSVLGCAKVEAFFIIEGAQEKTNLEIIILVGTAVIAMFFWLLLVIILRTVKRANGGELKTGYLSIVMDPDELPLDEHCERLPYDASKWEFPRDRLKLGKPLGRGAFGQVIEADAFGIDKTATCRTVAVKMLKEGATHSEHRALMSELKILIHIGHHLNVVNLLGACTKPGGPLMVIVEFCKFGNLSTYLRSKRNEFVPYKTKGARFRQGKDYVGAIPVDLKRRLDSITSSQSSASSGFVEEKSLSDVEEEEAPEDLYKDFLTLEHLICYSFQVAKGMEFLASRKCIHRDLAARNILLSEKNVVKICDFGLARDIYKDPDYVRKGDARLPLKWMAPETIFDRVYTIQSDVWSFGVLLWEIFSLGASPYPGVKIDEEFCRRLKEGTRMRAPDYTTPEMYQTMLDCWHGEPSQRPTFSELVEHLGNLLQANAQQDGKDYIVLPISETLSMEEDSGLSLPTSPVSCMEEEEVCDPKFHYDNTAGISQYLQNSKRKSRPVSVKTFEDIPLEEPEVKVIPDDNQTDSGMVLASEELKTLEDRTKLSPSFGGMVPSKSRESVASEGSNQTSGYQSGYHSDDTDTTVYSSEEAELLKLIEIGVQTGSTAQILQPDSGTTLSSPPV

As for `COc1cc2c(Oc3c(F)cc(NC(=O)c4cnccc4OC)cc3F)ccnc2cc1OCCO`, the solubility kinetic in [1] amounted to 315 µM (≈ 157 µg/mL); in data set [2] it was 11 µM (≈ 5.47 µg/mL). For the same molecule, the inhibition (usually the relative decrease from the control value, in per cent) in data set [3] was 8%; in [5], -8%; in data set [6], 18%; in data set [7], 30%; in [9] it was 7%; in data set [10], 98%. The inhibition in [11] was 90%; in data set [12] it was 12%. In addition, the inhibition at 10 µM is 3% in [4] and -3% in [8]. The bioavailability in [13] and in data set [14] was about 100% each time. For the same molecule, the values for the EC50 in data set [15] and in data set [16] were 36 nM and 31 nM, respectively.

For the molecule `CN1CCC(COc2cnc(-c3cccc(Cn4nc(-c5cccc(C#N)c5)ccc4=O)c3)nc2)CC1` [TEPOTINIB], the solubility kinetic in [1] stood at 295 µM (≈ 145 µg/mL); in data set [2], 48 µM (≈ 23.6 µg/mL). Also, the EC50 – broadly, the concentration that produces a half-maximal response – in [15] was 6.4 nM; in [16], 1910 nM; in data set [17], 3.04 µM; in data set [18] it was 3.44 µM; in [19], 1820 nM; in data set [20] it was 3.41 µM. Further, the EC50 is 2210 nM in [21]; 2810 nM in [22]; 0.6 nM in [23]; 2.3 nM in [24]; 183 nM in data set [25]; 4.2 nM in [26]. Further, the EC50 turned out to be 123 nM in data set [27], 122 nM in [28] and 24 nM in data set [29].

Turning to `COCCNCc1ccc(-c2cc3nccc(Oc4ccc(NC(=S)NC(=O)Cc5ccc(F)cc5)cc4F)c3s2)nc1` [GLESATINIB], the solubility kinetic amounted to 4 µM (≈ 2.48 µg/mL) in [1] and 0.12 µM (≈ 0.0744 µg/mL) in data set [2]. The IC50 (in general, the concentration that inhibits the measured activity by half) in [30] worked out at 0.5 nM.

`Cc1ccc(C(=O)Nc2ccc(Oc3cc4cnn(C)c4cc3-c3cn[nH]c3)c(F)c2)c(=O)n1-c1ccc(F)cc1` [MERESTINIB]: the figures for the solubility kinetic in data set [1] and in data set [2] were 0.4 µM (≈ 0.221 µg/mL) and 0.08 µM (≈ 0.0442 µg/mL), respectively. Also, the IC50 amounted to 0.5 nM in [31], 0.5 nM in data set [32] and 341 nM in data set [30]. Moreover, the EC50 in data set [15] is 25 nM; in [16], 116 nM; in data set [17] it was 0.129 µM; in [18], 0.255 µM; in data set [19] it was 91 nM; in data set [20] it was 0.026 µM. The EC50 amounted to 23 nM in data set [21]; 18 nM in data set [22]; 7.8 nM in data set [23]; 21 nM in data set [24]; 64 nM in [25]; 249 nM in [26]. Further, the values for the EC50 in data set [27], in [28] and in data set [29] were 203 nM, 837 nM and 511 nM, respectively.

As to `CNCCOc1cc2nccc(Oc3c(F)cc(NC(=O)c4cnccc4OC)cc3F)c2cc1OC`, the solubility kinetic in data set [1] amounted to 276 µM (≈ 141 µg/mL); in [2] it was 208 µM (≈ 106 µg/mL). The inhibition in data set [3] is 54%; in data set [5] it was 54%; in data set [6], 58%; in data set [7], 89%; in data set [9], 101%; in data set [10] it was -2%. The inhibition turned out to be 11% in data set [11] and 3% in data set [12]. The inhibition at 10 µM in [4] is 70%; in data set [8] it was 41%. The clearance (as a rule, a measure of how efficiently the substance is removed, as volume per time) in data set [33] worked out at 43 mL/min/kg. Moreover, in data set [13], the bioavailability (usually the share of a dose that reaches the circulation, judged against a reference dose that is usually intravenous) is under 5%. Moreover, the concentration for a half-maximal effect (EC50) in [15] is 59 nM; in [16], 41 nM.

Regarding `C[C@@H](c1ccc2nccn2c1)n1nnc2ncc(-c3cnn(C)c3)nc21` [SAVOLITINIB], the EC50 is over 10 µM in data set [17]; over 10 µM in data set [18]; 7400 nM in data set [19]; over 10 µM in data set [20]; over 10000 nM in data set [21]; over 10000 nM in data set [22]. In addition, the EC50 in data set [23] was determined as 0.5 nM; in data set [24] it was 0.5 nM; in [25], 13 nM; in data set [26], 1.5 nM; in data set [27], 73 nM; in data set [28] it was 74 nM. In data set [29], this molecule showed an EC50 of 8.4 nM.
